Test results as given in ChEMBL document CHEMBL1201862, “PubChem BioAssay data set” (2004).
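The compound was tested at five concentrations on cells cultured in 96-well plates, with a 48-hour exposure period. The concentration for 50% growth inhibition is given as GI50.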 Activity calls are given as the source filed them. No stated cut-off is given here; in the data, active = GI50 up to about 1.1 µM and inactive = higher.

Key:
Test in all cases: NCI-60 cell line screen, 48 h
[1] = system: A498
[2] = system: A549
[3] = system: BT-549
[4] = system: CAKI-1
[5] = system: DU-145
[6] = system: HCC 2998
[7] = system: HOP-62
[8] = system: Hs-578T
[9] = system: MCF7
[10] = system: NCI-H226
[11] = system: NCI-H23
[12] = system: NCI/ADR-RES
[13] = system: RPMI-8226
[14] = system: SF-268
[15] = system: SK-MEL-5
[16] = system: SK-OV-3
[17] = system: UACC-257
[18] = system: IGROV-1
[19] = system: PC-3
[20] = system: Malme-3M

Compound | GI50 [1] | GI50 [2] | GI50 [3] | GI50 [4] | GI50 [5] | GI50 [6] | GI50 [7] | GI50 [8] | GI50 [9] | GI50 [10] | GI50 [11] | GI50 [12] | GI50 [13] | GI50 [14] | GI50 [15] | GI50 [16] | GI50 [17] | GI50 [18] | GI50 [19] | GI50 [20]
NS(=O)(=O)c1nnc(NS(=O)(=O)c2ccc(F)cc2)s1 | > 100 µM (inactive) | > 100 µM (inactive) | > 100 µM (inactive) | > 100 µM (inactive) | > 100 µM (inactive) | > 100 µM (inactive) | > 100 µM (inactive) | > 100 µM (inactive) | > 100 µM (inactive) | > 100 µM (inactive) | > 100 µM (inactive) | > 100 µM (inactive) | > 100 µM (inactive) | > 100 µM (inactive) | > 100 µM (inactive) | > 100 µM (inactive) | > 100 µM (inactive) | – | – | –
OCC(O)COCn1cc(Cn2ncc3c(O)ncnc32)nn1 (stereo unspecified) | > 100 µM (inactive) | > 100 µM (inactive) | > 100 µM (inactive) | > 100 µM (inactive) | > 100 µM (inactive) | > 100 µM (inactive) | > 100 µM (inactive) | – | > 100 µM (inactive) | > 100 µM (inactive) | > 100 µM (inactive) | > 100 µM (inactive) | > 100 µM (inactive) | – | > 100 µM (inactive) | > 100 µM (inactive) | > 100 µM (inactive) | > 100 µM (inactive) | > 100 µM (inactive) | –
COc1cc(C2C3=C(CCCC3=O)N(c3ccc(C)cc3)C3=C2C(=O)CCC3)c([N+](=O)[O-])cc1OC | > 100 µM (inactive) | 54.5 µM (inactive) | > 100 µM (inactive) | > 100 µM (inactive) | – | > 100 µM (inactive) | – | 75.9 µM (inactive) | 39.4 µM (inactive) | 76.9 µM (inactive) | > 100 µM (inactive) | > 100 µM (inactive) | 57.3 µM (inactive) | 97.5 µM (inactive) | 64.6 µM (inactive) | > 100 µM (inactive) | – | > 100 µM (inactive) | > 100 µM (inactive) | –
O=C(CC(C(=O)c1cccs1)c1ccsc1)c1ccc(Cl)cc1 (stereo unspecified) | > 100 µM (inactive) | > 100 µM (inactive) | – | > 100 µM (inactive) | > 100 µM (inactive) | > 100 µM (inactive) | > 100 µM (inactive) | > 100 µM (inactive) | > 100 µM (inactive) | 81.8 µM (inactive) | > 100 µM (inactive) | 83.8 µM (inactive) | > 100 µM (inactive) | > 100 µM (inactive) | > 100 µM (inactive) | > 100 µM (inactive) | > 100 µM (inactive) | > 100 µM (inactive) | > 100 µM (inactive) | > 100 µM (inactive)
Cc1ccc(S(=O)(=O)n2c3c(c4ccccc42)CCN2C(=O)C(S(=O)(=O)c4ccccc4)=CCC32)cc1 (stereo unspecified) | 0.213 µM (active) | 1.22 µM (inactive) | – | 0.262 µM (active) | 0.17 µM (active) | 0.212 µM (active) | 0.24 µM (active) | 0.579 µM (active) | 0.164 µM (active) | 1.77 µM (inactive) | 0.158 µM (active) | 0.218 µM (active) | 0.327 µM (active) | 0.238 µM (active) | 0.165 µM (active) | 1.3 µM (inactive) | 0.169 µM (active) | 0.184 µM (active) | 0.239 µM (active) | 0.213 µM (active)
COc1ccc(NC(=O)CC(=O)n2nc(-c3ccccc3)c(/N=N/c3ccccc3C)c2-c2ccccc2)cc1 | 21.5 µM (inactive) | 23.6 µM (inactive) | – | 17.3 µM (inactive) | 45.8 µM (inactive) | > 78.7 µM (inactive) | 15.9 µM (inactive) | 14.3 µM (inactive) | 35.3 µM (inactive) | 26 µM (inactive) | 22.1 µM (inactive) | 29.6 µM (inactive) | > 58.5 µM (inactive) | 17.9 µM (inactive) | 40.2 µM (inactive) | 19.9 µM (inactive) | 64.1 µM (inactive) | 21.4 µM (inactive) | 17.1 µM (inactive) | 24.3 µM (inactive)
COc1cc(C2c3cc4c(cc3OC(NN)C2C)OCO4)cc(OC)c1O (stereo unspecified) | – | 8.2 µM (inactive) | 10.3 µM (inactive) | 10.4 µM (inactive) | 15.3 µM (inactive) | 12.4 µM (inactive) | – | – | 8.09 µM (inactive) | 25.4 µM (inactive) | 27 µM (inactive) | 4.52 µM (inactive) | 3.95 µM (inactive) | 28.3 µM (inactive) | 4.13 µM (inactive) | – | 18.5 µM (inactive) | 5.94 µM (inactive) | 10.4 µM (inactive) | 5.71 µM (inactive)
COc1c(O)cc2c(c1O)C1O[C@H](CO)C(O)[C@H](O)[C@H]1OC2=O (stereo partly specified) | – | > 100 µM (inactive) | > 100 µM (inactive) | > 100 µM (inactive) | > 100 µM (inactive) | > 100 µM (inactive) | > 100 µM (inactive) | – | > 100 µM (inactive) | > 100 µM (inactive) | > 100 µM (inactive) | > 100 µM (inactive) | > 100 µM (inactive) | > 100 µM (inactive) | > 100 µM (inactive) | > 100 µM (inactive) | > 100 µM (inactive) | > 100 µM (inactive) | > 100 µM (inactive) | > 100 µM (inactive)
